Results from publication PMC3057186, “Identification and characterization of seven new exon 11-associated splice variants of the rat mu opioid receptor gene, OPRM1” (Molecular Pain, 2011).

How the values were obtained:
Assay in all cases: [3H]DAMGO saturation binding, CHO membranes
[1] = biological target: T1, rMOR-1H1 (Rattus norvegicus, UniProt B8Q1M0)
T1 construct: gene Oprm1; exon 11-associated transcript predicting the same protein as rMOR-1 (AUG in exon 1a)

[2] = biological target: T2, rMOR-1i2 (Rattus norvegicus, UniProt B8Q1M0)
T2 construct: gene Oprm1; exon 11-associated transcript predicting the same protein as rMOR-1 (AUG in exon 1a)

[3] = biological target: T3, rMOR-1H2 (Rattus norvegicus, UniProt D2CKI5)
T3 construct: gene Oprm1; 7 TM
T3 sequence (D2CKI5 1-448): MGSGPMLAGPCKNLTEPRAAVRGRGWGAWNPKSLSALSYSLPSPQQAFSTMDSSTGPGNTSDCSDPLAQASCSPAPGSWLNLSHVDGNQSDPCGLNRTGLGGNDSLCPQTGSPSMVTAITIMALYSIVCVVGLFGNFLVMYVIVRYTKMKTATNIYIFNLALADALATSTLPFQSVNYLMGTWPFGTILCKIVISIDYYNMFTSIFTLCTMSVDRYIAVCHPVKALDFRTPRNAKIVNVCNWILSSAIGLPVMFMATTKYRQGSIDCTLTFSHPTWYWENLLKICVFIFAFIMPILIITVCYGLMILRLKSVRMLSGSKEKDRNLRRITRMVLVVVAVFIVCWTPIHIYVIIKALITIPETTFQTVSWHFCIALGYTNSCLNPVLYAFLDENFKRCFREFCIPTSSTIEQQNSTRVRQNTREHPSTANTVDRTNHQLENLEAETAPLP

T2 sequence (B8Q1M0 1-398): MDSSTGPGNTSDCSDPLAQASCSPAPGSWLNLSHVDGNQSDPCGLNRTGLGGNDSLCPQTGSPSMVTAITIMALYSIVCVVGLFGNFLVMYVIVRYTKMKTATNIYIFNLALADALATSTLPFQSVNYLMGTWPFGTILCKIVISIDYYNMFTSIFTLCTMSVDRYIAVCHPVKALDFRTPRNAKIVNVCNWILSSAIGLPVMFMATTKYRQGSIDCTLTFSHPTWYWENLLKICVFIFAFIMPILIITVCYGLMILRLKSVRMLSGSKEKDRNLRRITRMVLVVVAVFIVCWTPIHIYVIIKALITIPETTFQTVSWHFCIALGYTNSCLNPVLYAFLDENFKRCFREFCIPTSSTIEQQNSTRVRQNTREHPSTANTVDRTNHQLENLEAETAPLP
T1 sequence (B8Q1M0 1-398): as above

Structure (SMILES): C[C@@H](NC(=O)[C@@H](N)Cc1ccc(O)cc1)C(=O)NCC(=O)N(C)[C@@H](Cc1ccccc1)C(=O)NCCO [DAMGO]
- Kd [1]: 510 ± 50 pM
- Kd [2]: 360 ± 40 pM
- Kd [3]: 370 ± 20 pM
